The target in test [1] is RAF proto-oncogene serine/threonine-protein kinase (Homo sapiens, UniProt P04049). As to the kind of experiment: In vitro Enzyme Assay. The conditions noted are these: pH 7.5; 25 °C. The procedure:
(§1) Reaction Biology Corporation Kinase HotSpotSM service: In a final reactionvolume of 25 μL, kinase (5-10 mU) is incubated with 25 mM Tris pH 7.5, 0.02 mM ethylene glycol tetracetic acid (EGTA), 0.66 mg/mL myelin basic protein, […], and [γ33P-ATP] (specific activity approx. 500 c.p.m./pmol,concentration as required). The reaction is initiated by the addition of the Mg-ATP mix. After incubation for 40 min at room temperature, the reaction is stopped by the addition of 5 μL of a 3% phosphoric acid solution. About 10 μL ofthe reaction solution is then spotted onto a P30 filtermat and washed three times for 5 min in 75 mM phosphoric acid and once in methanol prior to drying and scintillation counting.

Test [2] deals with Serine/threonine-protein kinase B-raf [V600E] (Homo sapiens, UniProt P15056, V600E). Description: In vitro Enzyme Assay. The following applies: pH 7.5; 25 °C. The procedure: as §1
Sequence of Serine/threonine-protein kinase B-raf [V600E] (P15056 2-766 V600E limits assumed): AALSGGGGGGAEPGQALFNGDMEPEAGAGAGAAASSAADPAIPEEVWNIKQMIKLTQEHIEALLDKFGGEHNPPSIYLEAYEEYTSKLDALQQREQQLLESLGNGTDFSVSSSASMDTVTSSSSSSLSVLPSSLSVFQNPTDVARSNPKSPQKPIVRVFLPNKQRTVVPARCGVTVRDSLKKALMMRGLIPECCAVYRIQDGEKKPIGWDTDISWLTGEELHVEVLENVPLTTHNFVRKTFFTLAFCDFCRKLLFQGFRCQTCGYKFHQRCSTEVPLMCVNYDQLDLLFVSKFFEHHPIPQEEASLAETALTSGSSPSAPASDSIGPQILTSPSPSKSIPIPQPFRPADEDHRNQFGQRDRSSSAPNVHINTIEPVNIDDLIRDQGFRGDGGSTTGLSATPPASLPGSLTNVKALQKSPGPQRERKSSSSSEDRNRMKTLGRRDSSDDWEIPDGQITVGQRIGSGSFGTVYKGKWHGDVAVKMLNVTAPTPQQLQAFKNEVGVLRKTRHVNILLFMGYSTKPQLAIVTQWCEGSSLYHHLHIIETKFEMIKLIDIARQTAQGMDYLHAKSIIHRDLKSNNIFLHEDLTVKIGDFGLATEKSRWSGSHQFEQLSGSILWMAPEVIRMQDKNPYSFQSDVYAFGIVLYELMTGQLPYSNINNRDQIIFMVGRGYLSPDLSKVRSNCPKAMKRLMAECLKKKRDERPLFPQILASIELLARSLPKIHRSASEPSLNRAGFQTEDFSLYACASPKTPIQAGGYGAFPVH

Sequence of RAF proto-oncogene serine/threonine-protein kinase (P04049 whole entry): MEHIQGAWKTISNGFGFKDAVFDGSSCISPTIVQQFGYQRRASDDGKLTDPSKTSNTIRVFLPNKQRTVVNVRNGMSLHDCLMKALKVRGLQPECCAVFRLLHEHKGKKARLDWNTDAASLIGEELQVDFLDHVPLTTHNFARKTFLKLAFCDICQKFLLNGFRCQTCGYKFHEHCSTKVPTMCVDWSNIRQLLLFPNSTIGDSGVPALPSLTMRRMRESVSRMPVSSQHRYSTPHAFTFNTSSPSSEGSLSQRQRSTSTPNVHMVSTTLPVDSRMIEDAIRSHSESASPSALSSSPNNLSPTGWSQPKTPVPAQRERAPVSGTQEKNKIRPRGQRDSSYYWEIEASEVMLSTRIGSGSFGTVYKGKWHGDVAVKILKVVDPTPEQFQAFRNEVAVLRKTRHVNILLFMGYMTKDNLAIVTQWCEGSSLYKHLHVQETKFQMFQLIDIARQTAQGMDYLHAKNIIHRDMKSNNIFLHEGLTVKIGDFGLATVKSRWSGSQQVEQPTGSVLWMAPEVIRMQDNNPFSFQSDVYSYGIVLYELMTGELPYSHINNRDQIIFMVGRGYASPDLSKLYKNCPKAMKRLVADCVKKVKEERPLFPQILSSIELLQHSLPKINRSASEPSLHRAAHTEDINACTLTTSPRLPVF

One may read the IC50 as the point on the concentration scale where inhibition reaches its midpoint. A high value points to lower potency. Turning to `CNC(=O)c1cc(Oc2cccc3nc(Nc4ccc(Cl)c(C(F)(F)F)c4)ccc23)ccn1` [4-((2-((4-Chloro-3-(trifluoromethyl)phenyl)amino)quinolin-5-yl)oxy)-N-methylpicolinamide (6j)], the IC50 in test [1] and in test [2] was more than 100 µM in each case.

For the molecule `CNC(=O)c1cc(Oc2cccc3nc(Nc4cccc(C(C)(C)C)c4)ccc23)ccn1` [4-((2-((3-(Tert-butyl)phenyl)amino)quinolin-5-yl)oxy)-N-methylpicolinamide (6d)], the half-inhibitory concentration (IC50) in test [1] is 92.6 µM; in test [2], more than 100 µM.

The values are drawn from BindingDB's records for doi:10.1111/cbdd.12836 (Korea Institute of Science and Technology, 2017).
